# Measurements reported in patent US10670605B2, “Cysteine reactive probes and uses thereof” (The Scripps Research Institute, priority 2015, dated 2020).
# What was measured:
# Test in all cases: Competitive isoTOP-ABPP, cell lysates
# Format in all cases: binding
# [1] = target: T1, ERCC3 C342 (P19447) (Homo sapiens, UniProt P19447); conditions: for isoTOP-ABPP ratio P19447_C342: 500 μM, invitro
# T1 sequence (P19447 1-782): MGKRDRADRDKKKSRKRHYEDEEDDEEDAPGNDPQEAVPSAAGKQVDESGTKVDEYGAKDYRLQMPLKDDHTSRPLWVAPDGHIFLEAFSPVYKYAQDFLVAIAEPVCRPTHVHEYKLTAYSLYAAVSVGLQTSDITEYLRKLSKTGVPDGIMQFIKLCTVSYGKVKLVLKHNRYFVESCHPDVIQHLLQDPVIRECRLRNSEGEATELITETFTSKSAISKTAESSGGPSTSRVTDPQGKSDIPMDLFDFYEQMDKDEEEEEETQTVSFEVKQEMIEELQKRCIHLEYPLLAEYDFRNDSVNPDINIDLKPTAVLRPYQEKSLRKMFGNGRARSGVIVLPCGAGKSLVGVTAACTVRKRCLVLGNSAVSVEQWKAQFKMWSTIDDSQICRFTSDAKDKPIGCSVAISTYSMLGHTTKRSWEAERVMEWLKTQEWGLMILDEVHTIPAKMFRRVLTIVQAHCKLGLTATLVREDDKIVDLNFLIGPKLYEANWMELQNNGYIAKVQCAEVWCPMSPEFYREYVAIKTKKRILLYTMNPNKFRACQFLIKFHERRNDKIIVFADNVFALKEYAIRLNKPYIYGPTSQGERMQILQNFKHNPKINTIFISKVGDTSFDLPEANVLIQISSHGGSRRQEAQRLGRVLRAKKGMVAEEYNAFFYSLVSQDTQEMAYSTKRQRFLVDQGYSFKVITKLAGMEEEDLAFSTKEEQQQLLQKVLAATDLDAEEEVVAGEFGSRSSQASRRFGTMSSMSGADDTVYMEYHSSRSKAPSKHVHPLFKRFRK
# Protocol: TEV digests were pressure loaded onto a 250 μm (inner diameter) fused silica capillary column packed with C18 resin (Aqua 5 μm, Phenomenex). The samples were analyzed by multidimensional liquid chromatography tandem mass spectrometry (MudPIT), using an LTQ-Velos Orbitrap mass spectrometer (Thermo Scientific) coupled to an Agilent 1200-series quaternary pump. […] One full MS (MS1) scan (400-1800 m/z) was followed by 30 MS2 scans (ITMS) of the nth most abundant ions.
# The ratios of heavy/light for each unique peptide (DMSO/compound treated; isoTOP-ABPP ratios, R values) were quantified with in-house CIMAGE software, using default parameters (3 ms s per peak and signal to noise threshold 2.5). Site-specific engagement of electrophilic fragments was assessed by blockade of IA-alkyne probe labeling. […] Ratios for unique peptide entries were calculated for each experiment; overlapping peptides with the same modified cysteine (e.g. different charge states, MudPIT chromatographic steps or tryptic termini) were grouped together and the median ratio was reported as the final ratio (R). The peptide ratios reported by CIMAGE were further filtered to ensure the removal or correction of low quality ratios in each individual dataset. The quality filters applied were the following: removal of half tryptic peptides; for ratios with high standard deviations from the median (90% of the median or above) the lowest ratio was taken instead of the median; removal of peptides with R=20 and only a single ms2 event triggered during the elution of the parent ion; manual annotation of all the peptides with ratios of 20, removing any peptides with low-quality elution profiles that remained after the previous curation steps. Proteome reactivity values for individual fragments were computed as the percentage of the total quantified cysteine-containing peptides with R values≥4 (defined as liganded cysteines) for each replicate experiment and the final proteome reactivity value was calculated as the mean for all replicate experiments for each fragment from both MDA-MB-231 and Ramos cellular proteomes.
# Biological replicates of the same compound and cell-line were averaged if the standard deviation was below 60% of the mean; otherwise the lowest value of the ratio set was taken. For peptides with multiple modified cysteines, the cysteine with the highest number of quantification events was kept and the remaining, redundant peptides were discarded. […] Although the majority (>75% of fragments) were profiled in at least two biological replicates, some data from single replicate MS experiments were included.
# [2] = target: XPO1 C528 (O14980) (Homo sapiens, UniProt O14980); conditions: for isoTOP-ABPP reactivity profile ratio, O14980_C528 / isoTOP-ABPP reactivity ratio, O14980_C528: 500 μm; for isoTOP-ABPP ratio O14980_C528: 500 μM, invitro
# XPO1 C528 (O14980), sequence (O14980 whole entry): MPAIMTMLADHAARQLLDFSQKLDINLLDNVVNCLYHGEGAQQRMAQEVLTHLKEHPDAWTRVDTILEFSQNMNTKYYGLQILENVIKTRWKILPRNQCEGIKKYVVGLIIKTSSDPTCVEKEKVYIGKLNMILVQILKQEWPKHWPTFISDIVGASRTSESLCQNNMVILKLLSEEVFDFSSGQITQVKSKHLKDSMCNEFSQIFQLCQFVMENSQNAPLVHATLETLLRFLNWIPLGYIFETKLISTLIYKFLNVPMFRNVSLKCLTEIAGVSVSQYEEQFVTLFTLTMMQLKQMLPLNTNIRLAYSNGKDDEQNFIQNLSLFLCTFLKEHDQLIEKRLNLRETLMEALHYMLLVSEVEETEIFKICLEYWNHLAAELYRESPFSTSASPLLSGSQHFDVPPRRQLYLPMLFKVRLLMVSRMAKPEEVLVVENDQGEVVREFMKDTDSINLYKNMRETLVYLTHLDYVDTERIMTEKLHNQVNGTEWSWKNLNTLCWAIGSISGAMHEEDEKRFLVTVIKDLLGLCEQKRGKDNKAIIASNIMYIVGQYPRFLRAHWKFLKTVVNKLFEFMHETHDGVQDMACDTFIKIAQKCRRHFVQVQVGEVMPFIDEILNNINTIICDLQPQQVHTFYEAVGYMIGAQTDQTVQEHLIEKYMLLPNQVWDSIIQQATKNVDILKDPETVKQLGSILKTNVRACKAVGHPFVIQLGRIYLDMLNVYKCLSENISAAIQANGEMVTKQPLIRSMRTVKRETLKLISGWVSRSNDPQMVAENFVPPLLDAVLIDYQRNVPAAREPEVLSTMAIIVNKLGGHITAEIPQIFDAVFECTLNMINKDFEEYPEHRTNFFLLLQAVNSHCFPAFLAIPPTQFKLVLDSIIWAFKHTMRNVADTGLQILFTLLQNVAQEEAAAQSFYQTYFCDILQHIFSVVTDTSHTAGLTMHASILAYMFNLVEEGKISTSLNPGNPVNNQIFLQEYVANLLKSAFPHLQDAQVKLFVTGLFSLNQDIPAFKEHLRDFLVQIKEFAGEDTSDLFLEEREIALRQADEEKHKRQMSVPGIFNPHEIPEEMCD
# [3] = target: STAT3 C259 (P40763) (Homo sapiens, UniProt P40763); conditions: for isoTOP-ABPP reactivity profile ratio, P40763_C259 / isoTOP-ABPP reactivity ratio, P40763_C259: 500 μm; for isoTOP-ABPP ratio, P40763_C259: 500 μM, invitro
# STAT3 C259 (P40763), sequence (P40763 whole entry): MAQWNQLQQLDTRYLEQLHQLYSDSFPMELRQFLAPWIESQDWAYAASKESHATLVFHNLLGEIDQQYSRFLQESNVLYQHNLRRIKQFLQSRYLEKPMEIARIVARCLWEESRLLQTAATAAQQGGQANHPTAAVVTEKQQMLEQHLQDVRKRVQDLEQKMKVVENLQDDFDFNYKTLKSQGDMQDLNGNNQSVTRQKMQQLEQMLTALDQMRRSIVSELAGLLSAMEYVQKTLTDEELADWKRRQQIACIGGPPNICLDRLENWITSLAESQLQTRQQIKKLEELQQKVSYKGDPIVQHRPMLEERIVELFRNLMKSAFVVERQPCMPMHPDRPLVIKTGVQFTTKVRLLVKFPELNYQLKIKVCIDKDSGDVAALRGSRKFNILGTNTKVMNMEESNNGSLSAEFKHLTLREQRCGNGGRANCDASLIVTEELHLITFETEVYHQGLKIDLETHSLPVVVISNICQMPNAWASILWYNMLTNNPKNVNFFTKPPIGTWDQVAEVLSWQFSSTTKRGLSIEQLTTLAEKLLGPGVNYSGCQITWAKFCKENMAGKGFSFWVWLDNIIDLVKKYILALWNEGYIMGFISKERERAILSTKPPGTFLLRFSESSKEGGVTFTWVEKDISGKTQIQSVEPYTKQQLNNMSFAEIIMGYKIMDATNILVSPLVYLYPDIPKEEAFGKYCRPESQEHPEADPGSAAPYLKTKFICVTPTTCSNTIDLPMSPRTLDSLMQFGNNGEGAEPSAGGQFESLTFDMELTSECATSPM
# [4] = target: T2, IRF4 C194 (Q15306) (Homo sapiens, UniProt Q15306); conditions: for isoTOP-ABPP ratio (reactivity profile), Q15306_C194: 500 μm in-vitro ramos; for isoTOP-ABPP reactivity profile ratio, Q15306_C194 / isoTOP-ABPP reactivity ratio, Q15306_C194: 500 μm, in-vitro_ramos; for isoTOP-ABPP ratio, Q15306_C194: 500 μM, invitro, ramos
# T2 sequence (Q15306 1-451): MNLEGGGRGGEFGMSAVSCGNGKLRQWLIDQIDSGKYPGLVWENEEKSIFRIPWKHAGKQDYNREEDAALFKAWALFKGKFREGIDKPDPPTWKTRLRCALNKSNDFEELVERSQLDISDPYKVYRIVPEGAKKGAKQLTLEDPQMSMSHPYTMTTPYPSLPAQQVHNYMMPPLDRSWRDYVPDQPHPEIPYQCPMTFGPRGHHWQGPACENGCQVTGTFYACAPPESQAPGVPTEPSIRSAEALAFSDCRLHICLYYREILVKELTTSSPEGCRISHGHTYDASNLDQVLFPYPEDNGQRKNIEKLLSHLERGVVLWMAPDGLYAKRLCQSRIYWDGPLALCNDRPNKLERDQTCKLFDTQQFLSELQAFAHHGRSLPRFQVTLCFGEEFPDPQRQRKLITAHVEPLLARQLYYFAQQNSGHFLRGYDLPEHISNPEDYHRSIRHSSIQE
smiles,measurement,setting,value
N#C/C(=C\c1cc(C(F)(F)F)cc(C(F)(F)F)c1)C(N)=O [compound 23],"isoTOP-ABPP ratio (reactivity profile), P19447_C342",[1]; 500 μm in-vitro ramos_231,1.6
same,"isoTOP-ABPP ratio (reactivity profile), O14980_C528",[2]; 500 μm in-vitro ramos,2.9
same,"isoTOP-ABPP ratio (reactivity profile), P40763_C259",[3]; 500 μm in-vitro ramos,0.8
same,"isoTOP-ABPP ratio (reactivity profile), P40763_C259",[3]; 500 μm in-vitro ramos_231,1.1
same,"isoTOP-ABPP ratio (reactivity profile), Q15306_C194",[4],1.9
C=CC(=O)N1CCC(Cc2ccccc2)CC1 [compound 53],"isoTOP-ABPP reactivity profile ratio, O14980_C528",[2]; in-vitro_ramos,0.8
same,"isoTOP-ABPP reactivity profile ratio, P40763_C259",[3]; in-vitro_ramos,1.9
same,"isoTOP-ABPP reactivity profile ratio, Q15306_C194",[4],1.0
C=CC(=O)Nc1cc(F)c(N2CCN(C(=O)OC(C)(C)C)CC2)c(F)c1 [compound 38],"isoTOP-ABPP reactivity ratio, P19447_C342","[1]; 500 μm, in-vitro_ramos_231",1.3
same,"isoTOP-ABPP reactivity ratio, O14980_C528",[2]; in-vitro_ramos_231,1.0
same,"isoTOP-ABPP reactivity ratio, P40763_C259",[3]; in-vitro_ramos,1.5
same,"isoTOP-ABPP reactivity ratio, Q15306_C194",[4],2.1
C=CC(=O)Nc1cc(C)c(Br)cc1C [compound 40],"isoTOP-ABPP reactivity ratio, P40763_C259",[3]; in-vitro_ramos,1.4
same,"isoTOP-ABPP reactivity ratio, Q15306_C194",[4],1.1
O=C(CCl)NC(=O)NC12CC3CC(CC(C3)C1)C2 [compound 12],isoTOP-ABPP ratio P19447_C342,[1]; 231,3.0
same,isoTOP-ABPP ratio O14980_C528,[2]; 231,1.1
same,"isoTOP-ABPP ratio, Q15306_C194",[4],3.7
C=CC(=O)N(Cc1cccnc1)c1cc(C(F)(F)F)cc(C(F)(F)F)c1 [compound 31],"isoTOP-ABPP reactivity ratio, O14980_C528",[2]; in-vitro_ramos,3.2
same,"isoTOP-ABPP reactivity ratio, O14980_C528",[2]; in-vitro_ramos_231,5.2
same,"isoTOP-ABPP reactivity ratio, P40763_C259",[3]; in-vitro_ramos_231,1.7
same,"isoTOP-ABPP reactivity ratio, Q15306_C194",[4],1.1
Cn1cc(S(=O)(=O)N2CCOCC2)cc1C(=O)NC(=O)CCl [compound 11],isoTOP-ABPP ratio P19447_C342,[1]; 231,2.9
same,isoTOP-ABPP ratio P19447_C342,[1]; ramos,1.5
same,isoTOP-ABPP ratio O14980_C528,[2]; 231,1.0
same,isoTOP-ABPP ratio O14980_C528,[2]; ramos,0.7
same,"isoTOP-ABPP ratio, P40763_C259",[3]; 231,20.0
same,"isoTOP-ABPP ratio, P40763_C259",[3]; ramos,20.0
same,"isoTOP-ABPP ratio, Q15306_C194",[4],4.3
O=C(CCl)NCCc1c[nH]c2ccccc12 [compound 13],isoTOP-ABPP ratio P19447_C342,[1]; 231,1.0
same,isoTOP-ABPP ratio O14980_C528,[2]; ramos,0.5
same,"isoTOP-ABPP ratio, P40763_C259",[3]; ramos,1.2
same,"isoTOP-ABPP ratio, Q15306_C194",[4],1.1
O=C(CCl)N1CCN(CC(=O)N2CCOCC2)CC1 [compound 29],"isoTOP-ABPP ratio (reactivity profile), P19447_C342",[1]; 500 μm in-vitro ramos_231,0.8
same,"isoTOP-ABPP ratio (reactivity profile), O14980_C528",[2]; 500 μm in-vitro ramos_231,1.0
same,"isoTOP-ABPP ratio (reactivity profile), P40763_C259",[3]; 500 μm in-vitro ramos_231,1.5
same,"isoTOP-ABPP ratio (reactivity profile), Q15306_C194",[4],1.2
O=C(CCl)N1CCOCC1 [compound 22],"isoTOP-ABPP ratio (reactivity profile), P40763_C259",[3]; 500 μm in-vitro ramos_231,2.0
same,"isoTOP-ABPP ratio (reactivity profile), Q15306_C194",[4],1.1
CC(Cl)C(=O)Nc1cc(C(F)(F)F)cc(C(F)(F)F)c1 (stereo not drawn) [compound 25],"isoTOP-ABPP ratio (reactivity profile), P19447_C342",[1]; 500 μm in-vitro ramos_231,0.9
same,"isoTOP-ABPP ratio (reactivity profile), P40763_C259",[3]; 500 μm in-vitro ramos_231,0.9
CC(Br)C(=O)Nc1cc(C(F)(F)F)cc(C(F)(F)F)c1 (stereo not drawn) [compound 24],"isoTOP-ABPP ratio (reactivity profile), O14980_C528",[2]; 500 μm in-vitro ramos,20.0
same,"isoTOP-ABPP ratio (reactivity profile), P40763_C259",[3]; 500 μm in-vitro ramos,1.7
same,"isoTOP-ABPP ratio (reactivity profile), Q15306_C194",[4],1.9
CNS(=O)(=O)C=Cc1ccc2c(ccn2Cc2ccccc2)c1 [compound 6],isoTOP-ABPP ratio P19447_C342,[1]; 231,1.1
same,isoTOP-ABPP ratio O14980_C528,[2]; 231,0.7
same,"isoTOP-ABPP ratio, P40763_C259",[3]; 231,0.6
O=C(CCl)NC12CC3CC(CC(C3)C1)C2 [compound 21],"isoTOP-ABPP ratio (reactivity profile), P19447_C342",[1]; 500 μm in-vitro ramos_231,6.1
same,"isoTOP-ABPP ratio (reactivity profile), O14980_C528",[2]; 500 μm in-vitro ramos,0.8
same,"isoTOP-ABPP ratio (reactivity profile), O14980_C528",[2]; 500 μm in-vitro ramos_231,0.9
same,"isoTOP-ABPP ratio (reactivity profile), P40763_C259",[3]; 500 μm in-vitro ramos,2.9
same,"isoTOP-ABPP ratio (reactivity profile), Q15306_C194",[4],1.7
N#CC(=Cc1ccc(-c2ccccc2Cl)o1)C(N)=O [compound 42],"isoTOP-ABPP reactivity profile ratio, Q15306_C194",[4],1.2
O=C(CCl)Nc1ccc(-c2ccccc2)cc1 [compound 52],"isoTOP-ABPP reactivity profile ratio, P19447_C342","[1]; 500 μm, in-vitro_ramos_231",1.0
same,"isoTOP-ABPP reactivity profile ratio, O14980_C528",[2]; in-vitro_ramos_231,1.3
same,"isoTOP-ABPP reactivity profile ratio, P40763_C259",[3]; in-vitro_ramos_231,2.2
same,"isoTOP-ABPP reactivity profile ratio, Q15306_C194",[4],1.4
O=C(CCl)N1CCC(C(O)(c2ccccc2)c2ccccc2)CC1 [compound 20],"isoTOP-ABPP ratio (reactivity profile), P19447_C342",[1]; 500 μm in-vitro ramos_231,2.6
same,"isoTOP-ABPP ratio (reactivity profile), O14980_C528",[2]; 500 μm in-vitro ramos,4.0
same,"isoTOP-ABPP ratio (reactivity profile), O14980_C528",[2]; 500 μm in-vitro ramos_231,1.4
same,"isoTOP-ABPP ratio (reactivity profile), P40763_C259",[3]; 500 μm in-vitro ramos,3.0
same,"isoTOP-ABPP ratio (reactivity profile), Q15306_C194",[4],3.0
CCN(CC)c1ccc(S(N)(=O)=O)cc1NC(=O)CCl [compound 30],"isoTOP-ABPP ratio (reactivity profile), P19447_C342",[1]; 500 μm in-vitro ramos,1.3
same,"isoTOP-ABPP reactivity ratio, Q15306_C194",[4],1.7
